Experimental data reported in the kinase profiling compilation of Christmann-Franck et al. (2016).
Values joined by “and” are separate entries in the source; they are usually repeats but may differ in a detail not shown here. Equal values may be shown once.

Columns and labels:
EGFR (human) [1] = biological target: EGFR (human) (UniProt P00533); assay: SelectScreen, TR FRET
KDR (human) = KDR (human) (UniProt P35968); assay: radiometric filter-binding kinase assay, Kinaseprofiler; details: compound 1.0 µM; ATP 90 µM
CDK1 CCNB1 (human) = CDK1 CCNB1 (human) (UniProt P06493+P14635); assay: as above; details: compound 1.0 µM; ATP 45 µM
CDK3 CCNE1 (human) = CDK3 CCNE1 (human) (UniProt Q00526+P24864); assay: as above; details: compound 1.0 µM; ATP 200 µM
PIM2 (human) = PIM2 (human) (UniProt Q9P1W9); assay: as above; details: compound 1.0 µM; ATP 15 µM
DAPK3 (human) = DAPK3 (human) (UniProt O43293); assay: as above; details: compound 1.0 µM; ATP 15 µM
FLT1 (human) = FLT1 (human) (UniProt P17948); assay: as above; details: compound 1.0 µM; ATP 200 µM
PAK7 (human) = PAK7 (human) (UniProt Q9P286); assay: as above; details: compound 1.0 µM; ATP 15 µM
STK10 (human) = STK10 (human) (UniProt O94804); assay: as above; details: compound 1.0 µM; ATP 200 µM
[2] = tested on: GSK3A (human), P49840 [S449A]; assay: as above; details: compound 1.0 µM; ATP 10 µM
CDK6 CCND3 (human) = CDK6 CCND3 (human) (UniProt P30281+Q00534); assay: as above; details: compound 1.0 µM; ATP 200 µM
FLT3 (human) = FLT3 (human) (UniProt P36888); assay: as above; details: compound 1.0 µM; ATP 200 µM
PRKG1 (human) = PRKG1 (human) (UniProt Q13976); assay: as above; details: compound 1.0 µM; ATP 90 µM
EGFR (human) [3] = biological target: EGFR (human) (UniProt P00533); assay: as above; details: compound 1.0 µM; ATP 10 µM
PRKCQ (human) = PRKCQ (human) (UniProt Q04759); assay: as above; details: compound 1.0 µM; ATP 15 µM
PKN2 (human) = PKN2 (human) (UniProt Q16513); assay: as above; details: compound 1.0 µM; ATP 15 µM
[4] = tested on: EGFR (human), P00533 [L861Q]; assay: as above; details: compound 1.0 µM; ATP 10 µM
[5] = tested on: FLT3 (human), P36888 [D835Y]; assay: as above; details: compound 1.0 µM; ATP 200 µM
EPHA8 (human) = EPHA8 (human) (UniProt P29322); assay: as above; details: compound 1.0 µM; ATP 200 µM
MAP3K7 (human) = MAP3K7 (human) (UniProt O43318); assay: as above; details: compound 1.0 µM; ATP 45 µM
STK17A (human) = STK17A (human) (UniProt Q9UEE5); assay: as above; details: compound 1.0 µM; ATP 10 µM
BRSK1 (human) = BRSK1 (human) (UniProt Q8TDC3); assay: as above; details: compound 1.0 µM; ATP 200 µM
[6] = tested on: HIPK2 (human), Q9H2X6 [I471N]; assay: as above; details: compound 1.0 µM; ATP 10 µM
IGF1R (human) = IGF1R (human) (UniProt P08069); assay: as above; details: compound 1.0 µM; ATP 200 µM
NEK11 (human) = NEK11 (human) (UniProt Q8NG66); assay: as above; details: compound 1.0 µM; ATP 200 µM
EPHA3 (human) = EPHA3 (human) (UniProt P29320); assay: as above; details: compound 1.0 µM; ATP 120 µM
SIK1 (human) = SIK1 (human) (UniProt P57059); assay: as above; details: compound 1.0 µM; ATP 45 µM
SRPK1 (human) = SRPK1 (human) (UniProt Q96SB4); assay: as above; details: compound 1.0 µM; ATP 10 µM
EPHB3 (human) = EPHB3 (human) (UniProt P54753); assay: as above; details: compound 1.0 µM; ATP 90 µM
MAPK12 (human) = MAPK12 (human) (UniProt P53778); assay: as above; details: compound 1.0 µM; ATP 15 µM
CDK9 CCNT1 (human) = CDK9 CCNT1 (human) (UniProt P50750+O60563); assay: as above; details: compound 1.0 µM; ATP 45 µM
[7] = tested on: PAK2 (human), Q13177 [L150F, P225T, V383I; A339 del]; assay: as above; details: compound 1.0 µM; ATP 90 µM
TSSK2 (human) = TSSK2 (human) (UniProt Q96PF2); assay: as above; details: compound 1.0 µM; ATP 15 µM
[8] = tested on: KIT (human), P10721 [D816V]; assay: as above; details: compound 1.0 µM; ATP 200 µM
RPS6KA5 KD1 KD2 (human) = RPS6KA5 KD1 KD2 (human) (UniProt O75582); assay: as above; details: compound 1.0 µM; ATP 90 µM
RPS6KA2 KD1 KD2 (human) = RPS6KA2 KD1 KD2 (human) (UniProt Q15349); assay: as above; details: compound 1.0 µM; ATP 10 µM
EPHA5 (human) = EPHA5 (human) (UniProt P54756); assay: as above; details: compound 1.0 µM; ATP 10 µM
PRKCG (human) = PRKCG (human) (UniProt P05129); assay: as above; details: compound 1.0 µM; ATP 15 µM

PRKG1 (human), sequence (Q13976 whole entry, looked up): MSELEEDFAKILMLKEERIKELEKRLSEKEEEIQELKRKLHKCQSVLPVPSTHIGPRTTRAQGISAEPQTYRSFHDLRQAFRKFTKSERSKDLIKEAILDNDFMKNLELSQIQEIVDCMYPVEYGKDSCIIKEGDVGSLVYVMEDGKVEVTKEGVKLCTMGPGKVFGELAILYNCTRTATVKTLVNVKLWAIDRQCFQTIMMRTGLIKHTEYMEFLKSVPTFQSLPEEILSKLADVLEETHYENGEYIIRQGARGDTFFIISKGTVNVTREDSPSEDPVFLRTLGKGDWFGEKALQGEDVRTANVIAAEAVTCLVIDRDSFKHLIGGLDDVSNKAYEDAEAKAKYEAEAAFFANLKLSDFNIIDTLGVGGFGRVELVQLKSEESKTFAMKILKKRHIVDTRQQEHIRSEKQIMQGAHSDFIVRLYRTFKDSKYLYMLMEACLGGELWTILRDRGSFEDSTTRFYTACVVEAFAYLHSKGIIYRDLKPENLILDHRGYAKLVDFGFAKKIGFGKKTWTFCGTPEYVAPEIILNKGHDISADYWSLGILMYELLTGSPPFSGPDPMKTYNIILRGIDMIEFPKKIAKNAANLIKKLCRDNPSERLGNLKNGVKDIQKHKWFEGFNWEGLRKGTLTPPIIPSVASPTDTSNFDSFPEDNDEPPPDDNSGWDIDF
FLT1 (human), sequence (P17948 whole entry, looked up): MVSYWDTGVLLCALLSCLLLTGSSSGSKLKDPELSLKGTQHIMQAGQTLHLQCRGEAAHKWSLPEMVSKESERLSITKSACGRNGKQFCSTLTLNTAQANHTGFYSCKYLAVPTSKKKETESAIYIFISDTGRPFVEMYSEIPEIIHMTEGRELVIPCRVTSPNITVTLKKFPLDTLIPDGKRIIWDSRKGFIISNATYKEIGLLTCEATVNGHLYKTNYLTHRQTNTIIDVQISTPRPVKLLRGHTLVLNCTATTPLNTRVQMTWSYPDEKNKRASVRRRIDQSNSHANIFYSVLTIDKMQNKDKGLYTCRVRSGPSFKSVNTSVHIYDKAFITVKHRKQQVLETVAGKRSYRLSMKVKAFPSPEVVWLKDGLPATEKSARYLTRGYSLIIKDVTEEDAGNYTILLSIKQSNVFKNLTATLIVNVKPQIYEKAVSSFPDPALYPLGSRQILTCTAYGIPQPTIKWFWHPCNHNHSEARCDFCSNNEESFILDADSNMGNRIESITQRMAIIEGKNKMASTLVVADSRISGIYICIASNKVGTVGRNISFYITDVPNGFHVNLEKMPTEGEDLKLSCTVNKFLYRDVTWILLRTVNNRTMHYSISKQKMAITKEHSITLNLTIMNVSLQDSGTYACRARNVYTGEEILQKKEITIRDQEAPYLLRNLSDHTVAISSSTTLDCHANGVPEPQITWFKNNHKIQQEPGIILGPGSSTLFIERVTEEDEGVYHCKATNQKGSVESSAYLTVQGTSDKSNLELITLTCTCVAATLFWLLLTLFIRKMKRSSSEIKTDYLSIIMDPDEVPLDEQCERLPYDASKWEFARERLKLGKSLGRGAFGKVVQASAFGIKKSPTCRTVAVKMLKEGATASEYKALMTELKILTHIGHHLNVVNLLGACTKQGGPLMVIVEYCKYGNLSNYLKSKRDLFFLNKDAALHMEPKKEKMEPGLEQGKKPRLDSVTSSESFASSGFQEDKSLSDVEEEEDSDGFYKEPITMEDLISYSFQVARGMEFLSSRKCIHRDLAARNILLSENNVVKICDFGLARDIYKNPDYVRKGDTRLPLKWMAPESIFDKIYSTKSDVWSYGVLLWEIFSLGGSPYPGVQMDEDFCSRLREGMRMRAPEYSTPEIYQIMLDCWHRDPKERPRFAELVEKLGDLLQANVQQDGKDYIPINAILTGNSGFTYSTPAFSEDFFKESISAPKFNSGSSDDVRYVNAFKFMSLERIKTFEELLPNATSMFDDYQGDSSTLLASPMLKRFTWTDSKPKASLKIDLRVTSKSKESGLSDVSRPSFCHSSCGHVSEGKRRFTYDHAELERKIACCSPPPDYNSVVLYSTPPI
CDK6 CCND3 (human), sequence (P30281 whole entry, looked up): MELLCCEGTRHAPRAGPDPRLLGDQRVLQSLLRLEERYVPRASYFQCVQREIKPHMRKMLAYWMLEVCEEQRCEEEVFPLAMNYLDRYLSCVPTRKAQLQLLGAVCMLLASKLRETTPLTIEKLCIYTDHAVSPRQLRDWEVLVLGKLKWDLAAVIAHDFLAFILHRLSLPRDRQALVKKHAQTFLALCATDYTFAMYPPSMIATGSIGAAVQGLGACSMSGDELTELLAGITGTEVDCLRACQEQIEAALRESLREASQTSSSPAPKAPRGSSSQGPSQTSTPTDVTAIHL
CDK6 CCND3 (human), sequence (Q00534 whole entry, looked up): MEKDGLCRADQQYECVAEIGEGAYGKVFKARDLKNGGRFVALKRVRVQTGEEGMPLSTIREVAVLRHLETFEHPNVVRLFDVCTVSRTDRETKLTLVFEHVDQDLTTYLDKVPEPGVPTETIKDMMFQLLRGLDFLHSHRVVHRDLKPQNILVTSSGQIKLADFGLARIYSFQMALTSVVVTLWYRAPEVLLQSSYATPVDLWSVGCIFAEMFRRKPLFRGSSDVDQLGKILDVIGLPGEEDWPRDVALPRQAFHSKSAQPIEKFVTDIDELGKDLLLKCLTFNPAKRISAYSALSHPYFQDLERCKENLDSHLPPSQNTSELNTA
SIK1 (human), sequence (P57059 whole entry, looked up): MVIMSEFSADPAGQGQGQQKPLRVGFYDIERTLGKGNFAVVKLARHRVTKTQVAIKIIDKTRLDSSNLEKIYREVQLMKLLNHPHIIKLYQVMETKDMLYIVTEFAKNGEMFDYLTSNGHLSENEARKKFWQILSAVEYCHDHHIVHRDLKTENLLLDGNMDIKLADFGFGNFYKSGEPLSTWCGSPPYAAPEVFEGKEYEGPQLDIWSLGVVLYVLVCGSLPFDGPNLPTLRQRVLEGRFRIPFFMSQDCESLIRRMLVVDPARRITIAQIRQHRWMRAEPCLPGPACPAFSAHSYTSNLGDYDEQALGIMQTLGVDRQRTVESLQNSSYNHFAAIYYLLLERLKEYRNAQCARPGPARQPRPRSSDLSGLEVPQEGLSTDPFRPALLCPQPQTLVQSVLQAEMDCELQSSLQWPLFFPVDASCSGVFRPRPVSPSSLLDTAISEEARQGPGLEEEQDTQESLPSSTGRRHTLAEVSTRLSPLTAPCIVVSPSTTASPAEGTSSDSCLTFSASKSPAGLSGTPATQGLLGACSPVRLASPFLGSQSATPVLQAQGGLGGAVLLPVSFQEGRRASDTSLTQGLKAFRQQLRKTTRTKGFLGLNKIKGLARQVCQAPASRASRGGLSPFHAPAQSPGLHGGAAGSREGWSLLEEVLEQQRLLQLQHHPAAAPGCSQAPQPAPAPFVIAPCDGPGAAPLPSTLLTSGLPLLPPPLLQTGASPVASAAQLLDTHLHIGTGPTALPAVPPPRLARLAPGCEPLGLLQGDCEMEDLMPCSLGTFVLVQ
CDK9 CCNT1 (human), sequence (O60563 whole entry, looked up): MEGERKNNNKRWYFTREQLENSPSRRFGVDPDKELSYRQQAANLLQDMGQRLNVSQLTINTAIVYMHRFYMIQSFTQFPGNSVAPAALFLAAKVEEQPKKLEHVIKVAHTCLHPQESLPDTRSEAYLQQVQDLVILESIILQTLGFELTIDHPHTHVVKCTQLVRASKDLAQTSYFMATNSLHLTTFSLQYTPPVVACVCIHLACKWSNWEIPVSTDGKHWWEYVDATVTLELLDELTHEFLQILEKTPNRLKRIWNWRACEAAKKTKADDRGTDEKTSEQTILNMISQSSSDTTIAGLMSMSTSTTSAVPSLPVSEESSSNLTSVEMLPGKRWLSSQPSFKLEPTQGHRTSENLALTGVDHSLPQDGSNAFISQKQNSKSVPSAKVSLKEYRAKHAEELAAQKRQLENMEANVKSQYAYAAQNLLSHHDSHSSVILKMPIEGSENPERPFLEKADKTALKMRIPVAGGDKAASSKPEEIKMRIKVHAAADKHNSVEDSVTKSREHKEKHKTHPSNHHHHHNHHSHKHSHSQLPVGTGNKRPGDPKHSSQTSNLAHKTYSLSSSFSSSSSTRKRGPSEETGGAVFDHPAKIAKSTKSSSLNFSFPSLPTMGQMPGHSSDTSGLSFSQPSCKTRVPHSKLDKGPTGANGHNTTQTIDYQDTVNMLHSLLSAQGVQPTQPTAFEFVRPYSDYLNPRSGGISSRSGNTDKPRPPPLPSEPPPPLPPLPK
CDK9 CCNT1 (human), sequence (P50750 whole entry, looked up): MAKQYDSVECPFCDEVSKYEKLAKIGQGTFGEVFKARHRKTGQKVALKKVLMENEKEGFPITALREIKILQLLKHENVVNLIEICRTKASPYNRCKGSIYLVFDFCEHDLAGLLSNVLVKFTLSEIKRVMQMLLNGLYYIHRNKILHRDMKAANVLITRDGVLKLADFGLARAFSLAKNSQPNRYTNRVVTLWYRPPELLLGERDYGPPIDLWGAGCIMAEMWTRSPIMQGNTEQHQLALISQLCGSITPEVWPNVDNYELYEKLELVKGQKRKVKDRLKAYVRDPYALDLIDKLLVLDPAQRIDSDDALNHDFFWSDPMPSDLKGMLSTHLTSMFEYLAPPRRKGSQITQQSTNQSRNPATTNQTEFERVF
MAPK12 (human), sequence (P53778 whole entry, looked up): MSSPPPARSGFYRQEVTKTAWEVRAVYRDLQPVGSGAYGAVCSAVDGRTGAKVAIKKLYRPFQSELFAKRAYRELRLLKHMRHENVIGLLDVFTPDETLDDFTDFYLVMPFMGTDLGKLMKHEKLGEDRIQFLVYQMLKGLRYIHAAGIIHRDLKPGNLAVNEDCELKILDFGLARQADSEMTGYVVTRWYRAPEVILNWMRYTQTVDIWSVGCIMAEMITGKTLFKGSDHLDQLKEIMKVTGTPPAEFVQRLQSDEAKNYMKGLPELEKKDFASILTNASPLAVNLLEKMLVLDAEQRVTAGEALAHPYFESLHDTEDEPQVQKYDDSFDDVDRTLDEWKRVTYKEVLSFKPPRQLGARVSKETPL

**Q.** With `Cn1cc(-c2cnc3ccc4ccc(CC(=O)NCc5ccccn5)cc4c(=O)c3c2)cn1` as the compound, how does the inhibition (EGFR (human) [1]; compound 0.1 µM) read?
**A.** Its inhibition is 0.5%.

**Q.** What about the inhibition (EGFR (human) [1]; compound 1.0 µM) of the same compound?
**A.** The inhibition was 0.6%.

**Q.** What about the inhibition (EGFR (human) [1]; compound 10.0 µM) of the same compound?
**A.** Its inhibition is 7.1%.

**Q.** What does the source list for `CN(C)S(=O)(=O)Nc1ccc2ccc3ncc(-c4cnn(C)c4)cc3c(=O)c2c1`?
**A.** residual activity (KDR (human)): 10%; residual activity (CDK1 CCNB1 (human)): 66%; residual activity (CDK3 CCNE1 (human)): 100%; residual activity (PIM2 (human)): 98%; residual activity (DAPK3 (human)): 87%; residual activity (FLT1 (human)): 5%; residual activity (PAK7 (human)): 101%; residual activity (STK10 (human)): 78%; residual activity [2]: 86%; residual activity (CDK6 CCND3 (human)): 108%; residual activity (FLT3 (human)): 26%; residual activity (PRKG1 (human)): 6% and -14%; residual activity (EGFR (human) [3]): 100%; residual activity (PRKCQ (human)): 100%; residual activity (PKN2 (human)): 92%; residual activity [4]: 97%; residual activity [5]: 2%; residual activity (EPHA8 (human)): 108%; residual activity (MAP3K7 (human)): 75%; residual activity (STK17A (human)): 0%; residual activity (BRSK1 (human)): 74%; residual activity [6]: 94%; residual activity (IGF1R (human)): 101%; residual activity (NEK11 (human)): 118%; residual activity (EPHA3 (human)): 96%; residual activity (SIK1 (human)): 87%; residual activity (SRPK1 (human)): 102%; residual activity (EPHB3 (human)): 98%; residual activity (MAPK12 (human)): 103%; residual activity (CDK9 CCNT1 (human)): 107%; residual activity [7]: 100%; residual activity (TSSK2 (human)): 83%; residual activity [8]: 95%; residual activity (RPS6KA5 KD1 KD2 (human)): 101%; residual activity (RPS6KA2 KD1 KD2 (human)): 66%; residual activity (EPHA5 (human)): 102%; residual activity (PRKCG (human)): 101%
